Laboratory results reported in ChEMBL document CHEMBL4689842, “EUbOPEN Chemogenomics Library wave 1” (2021).

Legend:
Format in all cases: toxicity, cell-based
HEK-293T = experiment: Incucyte cell viability with HEK293T; conditions: human, 10 µM, compound concentration 10 uM
Fibroblast = experiment: Incucyte cell viability with human fibroblast; conditions: 10 µM, compound concentration 10 uM
U2OS = experiment: Incucyte cell viability with U2OS; conditions: human, 10 µM, compound concentration 10 uM
[1] = 6 h, replicate number 1, timepoint 6 hours
[2] = 12 h, replicate number 1, timepoint 12 hours
[3] = 18 h, replicate number 1, timepoint 18 hours
[4] = 24 h, replicate number 1, timepoint 24 hours
[5] = 0 h, replicate number 2, timepoint 0 hours
[6] = 24 h, replicate number 2, timepoint 24 hours
[7] = 0 h, replicate number 1, timepoint 0 hours
[8] = 18 h, replicate number 2, timepoint 18 hours
[9] = 6 h, replicate number 2, timepoint 6 hours
[10] = 12 h, replicate number 2, timepoint 12 hours
Further: filed as whole numbers so only -1 and 0 and 1 occur.

## Cc1cc(Nc2nccc(C)n2)cc(-c2cnc([C@@]3(O)CC[C@H](C(=O)O)C(C)(C)C3)s2)c1 [MRL-SYKi]
HEK-293T; [1]
  Growth Rate: 0
HEK-293T; [2]
  Growth Rate: 0
HEK-293T; [3]
  Growth Rate: 0
HEK-293T; [4]
  Growth Rate: 0
Fibroblast; [5]
  Growth Rate: 1
Fibroblast; [1]
  Growth Rate: 0
Fibroblast; [2]
  Growth Rate: 0
Fibroblast; [3]
  Growth Rate: 0
Fibroblast; [4]
  Growth Rate: 1
Fibroblast; [6]
  Growth Rate: 0
U2OS; [7]
  Growth Rate: 0
U2OS; [1]
  Growth Rate: 0
U2OS; [2]
  Growth Rate: 0
U2OS; [3]
  Growth Rate: 0
U2OS; [8]
  Growth Rate: 1
U2OS; [4]
  Growth Rate: 0

## O=S(=O)(c1ccccc1)N(CC(F)(F)F)c1ccc(C(O)(C(F)(F)F)C(F)(F)F)cc1 [T091317]
HEK-293T; [7]
  Growth Rate: 0
HEK-293T; [1]
  Growth Rate: 0
HEK-293T; [9]
  Growth Rate: 1
HEK-293T; [2]
  Growth Rate: 0
HEK-293T; [3]
  Growth Rate: 0
HEK-293T; [4]
  Growth Rate: 0
Fibroblast; [7]
  Growth Rate: 0
Fibroblast; [1]
  Growth Rate: 0
Fibroblast; [2]
  Growth Rate: 0
Fibroblast; [3]
  Growth Rate: 0
Fibroblast; [4]
  Growth Rate: 0
U2OS; [7]
  Growth Rate: 0
U2OS; [2]
  Growth Rate: 1
U2OS; [3]
  Growth Rate: 1
U2OS; [4]
  Growth Rate: 1

## Cc1cc(F)c(C(=O)Nc2cccc(-c3nncn3C(C)C)n2)cc1-n1cnc(C2CC2)c1 [SELONSERTIB]
HEK-293T; [5]
  Growth Rate: 1
HEK-293T; [1]
  Growth Rate: 0
HEK-293T; [2]
  Growth Rate: 0
HEK-293T; [3]
  Growth Rate: 0
HEK-293T; [4]
  Growth Rate: 0
Fibroblast; [7]
  Growth Rate: 0
Fibroblast; [2]
  Growth Rate: 1
Fibroblast; [3]
  Growth Rate: 1
Fibroblast; [4]
  Growth Rate: 1
U2OS; [7]
  Growth Rate: 0
U2OS; [1]
  Growth Rate: 0
U2OS; [2]
  Growth Rate: 0
U2OS; [3]
  Growth Rate: 0
U2OS; [4]
  Growth Rate: 1
U2OS; [6]
  Growth Rate: 0

## O=C(O)[C@@H]1[C@@H](Cn2nnc3ccccc3c2=O)CC[C@H]1C(=O)c1ccc(OCCC2CCOCC2)cc1 [BAY-694]
HEK-293T; [7]
  Growth Rate: 0
HEK-293T; [5]
  Growth Rate: 1
HEK-293T; [1]
  Growth Rate: 0
HEK-293T; [9]
  Growth Rate: 1
HEK-293T; [10]
  Growth Rate: 0
HEK-293T; [3]
  Growth Rate: 1
HEK-293T; [4]
  Growth Rate: 1
Fibroblast; [7]
  Growth Rate: 0
Fibroblast; [5]
  Growth Rate: 1
Fibroblast; [1]
  Growth Rate: 0
Fibroblast; [2]
  Growth Rate: 1
Fibroblast; [10]
  Growth Rate: 0
Fibroblast; [3]
  Growth Rate: 1
Fibroblast; [8]
  Growth Rate: 0
Fibroblast; [4]
  Growth Rate: 0
Fibroblast; [6]
  Growth Rate: 1
U2OS; [7]
  Growth Rate: 0
U2OS; [1]
  Growth Rate: 0
U2OS; [2]
  Growth Rate: 1
U2OS; [3]
  Growth Rate: 0
U2OS; [4]
  Growth Rate: 1
U2OS; [6]
  Growth Rate: 0

## CC1=C(C#N)C(c2ccc3[nH]nc(C)c3c2)C(C#N)=C(C)N1 [BAY-474]
HEK-293T; [7]
  Growth Rate: 0
HEK-293T; [6]
  Growth Rate: 1
Fibroblast; [7]
  Growth Rate: 1
Fibroblast; [1]
  Growth Rate: 0
Fibroblast; [2]
  Growth Rate: 1
Fibroblast; [3]
  Growth Rate: 1
Fibroblast; [4]
  Growth Rate: 1
U2OS; [7]
  Growth Rate: 0
U2OS; [1]
  Growth Rate: 0
U2OS; [2]
  Growth Rate: 0
U2OS; [3]
  Growth Rate: 0
U2OS; [8]
  Growth Rate: 1
U2OS; [4]
  Growth Rate: 0

## CNCCN1CCC(OCc2ccccc2)CC1
HEK-293T; [7]
  Growth Rate: 1
HEK-293T; [5]
  Growth Rate: 0
HEK-293T; [9]
  Growth Rate: 1
HEK-293T; [10]
  Growth Rate: 1
HEK-293T; [3]
  Growth Rate: 1
HEK-293T; [4]
  Growth Rate: 1
Fibroblast; [5]
  Growth Rate: 0
Fibroblast; [1]
  Growth Rate: 0
Fibroblast; [9]
  Growth Rate: 1
Fibroblast; [2]
  Growth Rate: 0
Fibroblast; [10]
  Growth Rate: 1
Fibroblast; [3]
  Growth Rate: 0
Fibroblast; [4]
  Growth Rate: 1
U2OS; [5]
  Growth Rate: 0
U2OS; [1]
  Growth Rate: 1
U2OS; [2]
  Growth Rate: 1
U2OS; [3]
  Growth Rate: 1
U2OS; [4]
  Growth Rate: 1

## C[C@@H]1CCN(C(=O)CC#N)C[C@@H]1N(C)c1ncnc2[nH]ccc12.O=C(O)CC(O)(CC(=O)O)C(=O)O [TOFACITINIB CITRATE]
HEK-293T; [7]
  Growth Rate: 1
HEK-293T; [5]
  Growth Rate: 0
HEK-293T; [1]
  Growth Rate: 0
HEK-293T; [2]
  Growth Rate: 0
HEK-293T; [10]
  Growth Rate: 1
HEK-293T; [3]
  Growth Rate: 1
HEK-293T; [4]
  Growth Rate: 1
Fibroblast; [7]
  Growth Rate: 0
Fibroblast; [2]
  Growth Rate: 1
Fibroblast; [3]
  Growth Rate: 1
Fibroblast; [4]
  Growth Rate: 1
U2OS; [7]
  Growth Rate: 0
U2OS; [1]
  Growth Rate: 0
U2OS; [2]
  Growth Rate: 0
U2OS; [3]
  Growth Rate: 0
U2OS; [4]
  Growth Rate: 0

## C[C@H](Cc1cc2c(c(C(N)=O)c1)N(CCCO)CC2)NCCOc1ccccc1OCC(F)(F)F [SILODOSIN]
HEK-293T; [7]
  Growth Rate: 0
HEK-293T; [1]
  Growth Rate: 0
HEK-293T; [2]
  Growth Rate: 0
HEK-293T; [3]
  Growth Rate: 0
HEK-293T; [4]
  Growth Rate: 0
Fibroblast; [7]
  Growth Rate: 0
Fibroblast; [1]
  Growth Rate: 0
Fibroblast; [2]
  Growth Rate: 0
Fibroblast; [3]
  Growth Rate: 0
Fibroblast; [4]
  Growth Rate: 1
Fibroblast; [6]
  Growth Rate: 0
U2OS; [7]
  Growth Rate: 0
U2OS; [9]
  Growth Rate: 0
U2OS; [2]
  Growth Rate: 1
U2OS; [10]
  Growth Rate: 0
U2OS; [3]
  Growth Rate: 1
U2OS; [4]
  Growth Rate: 1
U2OS; [6]
  Growth Rate: 0

## CCc1cc(C(C)=O)c(O)cc1OCCCCCC(C)(C)c1nn[nH]n1 [LY-255283]
HEK-293T; [7]
  Growth Rate: 0
HEK-293T; [1]
  Growth Rate: 1
HEK-293T; [9]
  Growth Rate: 0
HEK-293T; [2]
  Growth Rate: 0
HEK-293T; [3]
  Growth Rate: 0
HEK-293T; [4]
  Growth Rate: 0
HEK-293T; [6]
  Growth Rate: 1
Fibroblast; [7]
  Growth Rate: 0
Fibroblast; [1]
  Growth Rate: 0
Fibroblast; [2]
  Growth Rate: 0
Fibroblast; [3]
  Growth Rate: 0
Fibroblast; [4]
  Growth Rate: 0
U2OS; [7]
  Growth Rate: 0
U2OS; [9]
  Growth Rate: 0
U2OS; [2]
  Growth Rate: 1
U2OS; [10]
  Growth Rate: 0
U2OS; [3]
  Growth Rate: 1
U2OS; [8]
  Growth Rate: 0
U2OS; [4]
  Growth Rate: 1
U2OS; [6]
  Growth Rate: 0

## CC(C)S(=O)(=O)c1ccc2nccc(Nc3ccc4scnc4c3)c2c1
HEK-293T; [1]
  Growth Rate: 0
HEK-293T; [2]
  Growth Rate: 0
HEK-293T; [3]
  Growth Rate: 0
HEK-293T; [4]
  Growth Rate: 0
Fibroblast; [5]
  Growth Rate: 0
Fibroblast; [1]
  Growth Rate: 0
Fibroblast; [2]
  Growth Rate: 0
Fibroblast; [3]
  Growth Rate: 0
Fibroblast; [4]
  Growth Rate: 0
U2OS; [7]
  Growth Rate: 1
U2OS; [5]
  Growth Rate: 0
U2OS; [1]
  Growth Rate: 0
U2OS; [2]
  Growth Rate: 1
U2OS; [3]
  Growth Rate: 0
U2OS; [8]
  Growth Rate: 1
U2OS; [4]
  Growth Rate: 1

## O=c1nc(-c2ccccn2)sc2ccccc12 [BTZO-1]
HEK-293T; [7]
  Growth Rate: 0
HEK-293T; [5]
  Growth Rate: 1
HEK-293T; [1]
  Growth Rate: 1
HEK-293T; [2]
  Growth Rate: 1
HEK-293T; [3]
  Growth Rate: 1
HEK-293T; [4]
  Growth Rate: 1
Fibroblast; [7]
  Growth Rate: 1
Fibroblast; [5]
  Growth Rate: 0
Fibroblast; [1]
  Growth Rate: 0
Fibroblast; [9]
  Growth Rate: 1
Fibroblast; [2]
  Growth Rate: 0
Fibroblast; [10]
  Growth Rate: 1
Fibroblast; [3]
  Growth Rate: 0
Fibroblast; [8]
  Growth Rate: 1
Fibroblast; [4]
  Growth Rate: 0
Fibroblast; [6]
  Growth Rate: 1
U2OS; [7]
  Growth Rate: 0
U2OS; [1]
  Growth Rate: 1
U2OS; [2]
  Growth Rate: 0
U2OS; [10]
  Growth Rate: 1
U2OS; [3]
  Growth Rate: 1
U2OS; [8]
  Growth Rate: 0
U2OS; [4]
  Growth Rate: 1
U2OS; [6]
  Growth Rate: 0

## NC(=O)c1ccc(NC(=O)NCc2cccc(C(=O)Nc3ccc4c(c3)CNCC4)c2)cc1
HEK-293T; [7]
  Growth Rate: 0
HEK-293T; [3]
  Growth Rate: 1
HEK-293T; [4]
  Growth Rate: 0
HEK-293T; [6]
  Growth Rate: 1
Fibroblast; [7]
  Growth Rate: 0
Fibroblast; [1]
  Growth Rate: 0
Fibroblast; [9]
  Growth Rate: 1
Fibroblast; [2]
  Growth Rate: 0
Fibroblast; [3]
  Growth Rate: 1
Fibroblast; [4]
  Growth Rate: 1
U2OS; [7]
  Growth Rate: 0
U2OS; [1]
  Growth Rate: 0
U2OS; [2]
  Growth Rate: 1
U2OS; [3]
  Growth Rate: 1
U2OS; [4]
  Growth Rate: 1

## CC(=O)C1=C(C)N(c2cccc(C(F)(F)F)c2)C(=O)N[C@H]1c1ccc(C#N)nc1 [BAY-677]
HEK-293T; [7]
  Growth Rate: 0
HEK-293T; [3]
  Growth Rate: 1
HEK-293T; [4]
  Growth Rate: 1
Fibroblast; [7]
  Growth Rate: 0
Fibroblast; [1]
  Growth Rate: 0
Fibroblast; [9]
  Growth Rate: 1
Fibroblast; [2]
  Growth Rate: 0
Fibroblast; [3]
  Growth Rate: 0
Fibroblast; [4]
  Growth Rate: 0
U2OS; [7]
  Growth Rate: 0
U2OS; [5]
  Growth Rate: 1
U2OS; [1]
  Growth Rate: 1
U2OS; [9]
  Growth Rate: 0
U2OS; [2]
  Growth Rate: 1
U2OS; [10]
  Growth Rate: 0
U2OS; [3]
  Growth Rate: 1
U2OS; [8]
  Growth Rate: 0
U2OS; [4]
  Growth Rate: 0
